The results in this text go back to patent US10463044B2, “Molecules that inhibit efflux pumps in multi-drug resistant bacteria and uses thereof” (priority 2014, dated 2019).

Where two headings read alike, the source gives them in different places.

For data set [1], the system named is tetracycline resistant E. coli (tetA efflux pump). Description: microbe, parasite or virus in culture. It is filed as cell-based, Escherichia coli. To be noted: microtiter, inhibition greater than 80% considered as the MIC. The text has this: Among the organisms studied are several strains of the bacterium E. coli.
Minimal Inhibitory Concentration (MIC) Procedure. […] Streak the E. coli (DH5α or K-12 MG1655) strain on L.B agar plates. […] Prepare initial concentration of all the compounds required. • 5. […] Vortex each test tube for 2-3 seconds. • 9. […] Vortex each test tube for 2-3 seconds. • 11. […]
(§1) The minimal inhibitory concentrations (MIC) of all the compounds against three bacterial strains were first determined using the microtiter technique as described above. […] Antimicrobial property of hydraphiles is attributed to the disruption of ion homeostasis in bacteria.

In the next data set the test system is Cos-7. Description: Cytotoxicity of hydraphiles to Cos-7 (XTT assay). To be noted: concentration not given. (Tetrazolium assays rely on reduction of a dye to a coloured formazan, in cell work by metabolically active cells.)
The test system of another data set is HEK-293. Description: Cytotoxicity of hydraphiles to HEK-293 (XTT assay). Particulars: concentration not given.
In data set [2] the target is T1, NorA efflux pump (Staphylococcus aureus, UniProt P0A0J7).
T1 construct: Gram-positive S. aureus 1199B was used that overexpresses the NorA efflux pump; endogenous in cells; host or cells: S. aureus 1199B
T1 sequence (P0A0J7 whole entry): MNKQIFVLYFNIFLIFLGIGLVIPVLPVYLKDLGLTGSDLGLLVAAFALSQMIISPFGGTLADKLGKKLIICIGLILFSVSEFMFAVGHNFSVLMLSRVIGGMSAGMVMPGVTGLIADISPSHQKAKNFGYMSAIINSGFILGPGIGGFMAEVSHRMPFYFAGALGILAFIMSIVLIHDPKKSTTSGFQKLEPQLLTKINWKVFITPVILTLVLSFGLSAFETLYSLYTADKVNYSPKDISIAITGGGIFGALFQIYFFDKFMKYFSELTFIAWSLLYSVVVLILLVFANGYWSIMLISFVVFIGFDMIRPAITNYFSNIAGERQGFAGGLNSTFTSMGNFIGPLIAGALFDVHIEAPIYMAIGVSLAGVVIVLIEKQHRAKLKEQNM
Description: Ethidium bromide release from preloaded S. aureus 1199B (efflux pump inhibition). Type of data set: cell-based. Particulars: compound at 4 μM. As to the method:
In a following experiment, the ability of hydraphiles to inhibit the activity of efflux pumps was determined. Specifically, the S. aureus cells were preloaded with EB using 100 μM CCCP. The cells were washed to remove extracellular EB and CCCP. The cells were then treated with hydraphiles. If hydraphiles inhibit the activity of efflux pumps, then there should be small or no change in fluorescence of EB-DNA complex. […] However, if there is no effect of hydraphiles on the efflux pump activity, EB would be released resulting in a decrease in fluorescence.

In data set [3] the test system is tetracycline resistant E. coli (tetA efflux pump). It is filed as cell-based, Escherichia coli. Here is the method:
However, the bacterial strains used herein are multidrug resistant and the effect of hydraphiles on the inhibition of resistance mechanism (efflux pumps) was not known. The hydraphiles and the controls were tested next to see whether they could recover the activity of antibiotics against efflux pump expressing Gram-positive and Gram-negative bacteria. The MIC of antibiotics were determined in the presence of ½ [MIC] or ¼ [MIC] of each hydraphile or the controls used.

A further data set has as its system S. aureus 1199B. Description: MIC, S. aureus 1199B. It is filed as cell-based, Staphylococcus aureus.
Text: K. pneumoniae (ATCC BAA 2146; another Gram-negative bacterium) that expresses multiple classes of efflux pumps and NDM-1 gene was also used. This K. pneumoniae is a clinically relevant strain that was isolated from a patient. Gram-positive S. aureus 1199B was used that overexpresses the NorA efflux pump. Since ethidium bromide and norfloxacin are the substrates of efflux pumps, S. aureus 1199B was used to evaluate the activity of efflux pumps in the presence of the hydraphiles and other membrane disruptors.
as §1

The target of data set [4] is T1, NorA efflux pump. Description: Ethidium bromide accumulation in S. aureus 1199B. Type of data set: cell-based. Particulars: compound at 4 μM. As to the method: To determine if the activity of efflux pump and accumulation of substrate in the cell cytoplasm was affected by hydraphiles, the S. aureus 1199B strain overexpressing the NorA efflux pump was used. Since ethidium bromide (EB) is one of the substrates of the norA efflux pump, fluorescence from DNA-EB complex was utilized to measure effect of hydraphiles on the norA efflux pump. First, EB was added to the S. aureus 1199B cells followed by hydraphiles or the controls. If the hydraphiles allows for EB accumulation in the cell cytoplasm, an increase in fluorescence would be expected. […] Next step was to determine if the accumulation of EB in the cell cytoplasm was due to the ability of hydraphiles to inhibit the activity of the norA efflux pump or just a simple membrane disruption mechanism.

For a further data set, the system named is HeLa. Description: Cytotoxicity of hydraphiles to HeLa (XTT assay). To be noted: concentration not given.
Another data set relates to E. coli cells. Briefly: Potassium release from E. coli cells (potassium selective electrode). To be noted: control.
The subject of a further data set is Tet^R E. coli. Description: Resistance development by sequential culturing.
For the next data set, the system named is HEK-293 cells. Type of data set: cell-based, human. The text has this:
It could be argued that hydraphiles could also localize and disrupt the mammalian cell membranes. […] These hydraphiles increased the permeability of E. coli cells at ½ MIC concentrations. […] It is concluded that C8-C14 hydraphiles can selectively increase the permeability of bacterial cells without affecting the permeability of mammalian cells. […] DMSO and Triton X-100 were used as controls.

Setting [5] is: amphiphile 1 μM (½[MIC] for C14 hydraphile).
Setting [6] is: amphiphile/control 1700 μM (0.1%).

Description for Cos-7: (§2) Colistin and CCCP were used at controls.
(§3) XTT assay was used to determine the survival of mammalian cells in the presence of synthetic amphiphiles. […] CCCP was used as controls.
Description for E. coli cells: This change in potassium ion concentrations was measured using a Potassium selective electrode. […] Gramicidin D and valinomycin were used as controls. […] The potassium transport ability of C8-C14 hydraphiles was then tested at 4 μM.
Description for HeLa: as §2, §3
Description for Tet^R E. coli: Sequential culturing method was used to determine if bacteria could develop resistance to the hydraphiles.

For the compound `N#CC(C#N)=NNc1cccc(Cl)c1` [CCCP], in data set [1] (compound alone), the “Minimal Inhibitory Concentrations (MIC) E. coli (Tet^R)” value stood at 56 µM. In addition, the “cytotoxicity to Cos-7 (control)” value with Cos-7 is “cytotoxic”. In the data set with HEK-293, the “cytotoxicity to HEK-293 (control)” value is “cytotoxic”. Besides, the “inhibition of NorA activity, lower than that of hydraphiles” value on NorA efflux pump [2] amounted to 30%. Further, in [3] (setting [5]), the Fold Enhancement was 1-fold and the “[Antibiotic] μM / Used (μM) in combination” value was found to be 900 µM. In [3] (amphiphile/control 21 μM), the Fold Enhancement is reported as 2-fold and the “[Tetracycline] μM in combination” value is 450 µM. Moreover, in data set [3] (amphiphile/control 42 μM), the “[Tetracycline] μM in combination” value was 225 µM. The “Minimal Inhibitory Concentrations (MIC) S. aureus 1199B” value in the data set with S. aureus 1199B (compound alone, inhibition greater than 80% considered as the MIC) is at most 4 µM. Besides, the “accumulation of ethidium bromide (EB) in the cell cytoplasm” value on NorA efflux pump [4] is given as “much lower”. In the data set on HeLa, the “cytotoxicity to HeLa (control)” value is reported as “cytotoxic”.

Take `COC(=O)[C@H]1[C@H]2C[C@@H]3c4[nH]c5cc(OC)ccc5c4CCN3C[C@H]2C[C@@H](OC(=O)c2cc(OC)c(OC)c(OC)c2)[C@@H]1OC` [Reserpine]: the MIC in data set [1] (Escherichia coli, read-out: Minimal Inhibitory Concentrations (MIC) E. coli (Tet^R), compound alone) was above 128 µM; in the data set on S. aureus 1199B (Staphylococcus aureus, 1199B, read-out: Minimal Inhibitory Concentrations (MIC) S. aureus 1199B) it was above 128 µM. Moreover, at NorA efflux pump [2], the “inhibition of NorA activity, lower than that of hydraphiles” value stood at 30%. Besides, in [3] (amphiphile/control 64 μM), the Fold Enhancement is on record as 2-fold. Also, the “[Tetracycline] μM in combination” value in data set [3] (amphiphile/control 64 μM) was 450 µM; in data set [3] (amphiphile/control 128 μM), 225 µM. Further, the “accumulation of ethidium bromide (EB) in the cell cytoplasm” value on NorA efflux pump [4] is “much lower”.

Turning to `CC(C)[C@@H]1NC(=O)[C@H](C)OC(=O)[C@@H](C(C)C)NC(=O)[C@@H](C(C)C)OC(=O)[C@H](C(C)C)NC(=O)[C@H](C)OC(=O)[C@@H](C(C)C)NC(=O)[C@@H](C(C)C)OC(=O)[C@H](C(C)C)NC(=O)[C@H](C)OC(=O)[C@@H](C(C)C)NC(=O)[C@@H](C(C)C)OC1=O` [Valinomycin, reference compound], the “ion transport from E. coli (potassium)” value with E. coli cells is listed as “no change in ion transport”. In addition, in data set [3] (amphiphile/control 20 μM), the Fold Enhancement is 2-fold and the “[Tetracycline] μM in combination” value amounted to 450 ± 100 µM.

With `CN(C)c1ccc(O)c2c1C[C@H]1C[C@H]3[C@H](N(C)C)C(O)=C(C(N)=O)C(=O)[C@@]3(O)C(O)=C1C2=O` [minocycline], the “time in which Tet^R E. coli developed resistance” value in the data set with Tet^R E. coli lay in the range of 4 to 6 days.

For Triton X-100 [reference compound], the “[Tetracycline] μM in combination” value in data set [3] (amphiphile/control 20 μM) and in [3] (setting [6]) was 450 ± 100 µM each time. Moreover, in data set [3] (setting [6]), the Fold Enhancement was 2-fold. The “viability and permeability of HEK-293 cells” value in the data set on HEK-293 cells is “killed all the HEK-293 cells”.
